On to `c1ccc(O[Si](Oc2ccccc2)(Oc2ccccc2)Oc2ccccc2)cc1`, for which the boiling point was 417 °C and the melting point amounted to 49 °C.
Take `CC(CO)c1ccccc1` (stereo unspecified): the log10 vapour pressure (mmHg) was -1.72 and the melting point was -13 °C.
`OC[C@H]1O[C@H](O)[C@H](O)[C@@H](O)[C@@H]1O` displayed a log10 vapour pressure (mmHg) of -13.1.
Compound `COc1ccc(C(=O)CCC(=O)O)cc1` showed a melting point of 149 °C.
For `O=Cc1ccc(Oc2ccccc2)cc1`, the melting point was determined as 24.5 °C.
Consider `CCOP(=S)(OCC)SC(CCl)N1C(=O)c2ccccc2C1=O` (stereo unspecified), for which the log10 vapour pressure (mmHg) is -7.21 and the melting point stood at 68 °C.
In the case of `CC(=O)Oc1ccc(C(=O)O)cc1`, the melting point came out at 192 °C.
Regarding `Nc1c(Cl)cc(Cl)cc1Cl`, the boiling point came to 262 °C, the melting point worked out at 78.5 °C and the ready biodegradability result is listed as “not readily biodegradable”.
`O=C1C=CC(=O)c2c(O)cccc21` had a melting point of 155 °C.
`C=CCSC`: the boiling point amounted to 92 °C.
Take `Oc1ccc2c(O)c3ccccc3cc2c1O`: the melting point stood at 208 °C.
Take `CN(C)c1ccccc1N`: the boiling point worked out at 218 °C.
With `Cc1ccc2ccc(C)cc2c1`, the boiling point amounted to 265 °C, the log10 vapour pressure (mmHg) is -2.25 and the melting point was 97 °C.
`C=CC[N+](=O)[O-]`: the boiling point came to 128 °C.
Still for that read-out and setting: the same measure for `CC(=O)OCCl`: 116 °C.
On to `NS(=O)(=O)c1ccc(SCCCCCO)cc1`, for which the melting point was 103 °C.
On to `Nc1cccc2ccc(O)cc12`, for which the melting point stood at 206 °C.
In turn, `CCN(CC)c1cccc(C)c1` displayed a boiling point of 232 °C.
`CC(C)COC(N)=O`: the boiling point stood at 207 °C and the melting point came to 67 °C.
Compound `COC(CCl)OC` returned a boiling point of 128 °C.
`C=CCCCC=C` displayed a melting point of -129 °C.
With `O=C1CCCC1`, the boiling point came to 130 °C, the log10 Henry constant (atm·m³/mol) is -5, the log10 Koa was determined as 3.67 and the log10 vapour pressure (mmHg) amounted to 1.06. This compound showed a melting point of -51.3 °C.
For the compound `Clc1ccc2ccc(Cl)nc2c1`, the melting point came to 120 °C.
Compound `C=Cc1ccc(OC)cc1` showed a boiling point of 205 °C.
The compound `CCCSCC` registered a boiling point of 119 °C, a log10 vapour pressure (mmHg) of 1.27 and a melting point of -117 °C.
For the compound `CCC(Cl)CC`, the boiling point was 97.5 °C, the log10 vapour pressure (mmHg) turned out to be 1.67 and the melting point is -105 °C.
In turn, `Cc1ccc(C)c(C)c1C` showed a boiling point of 205 °C, a log10 biodegradation half-life (days) of 0.602, a log10 vapour pressure (mmHg) of -0.443 and a melting point of -6.2 °C.
Compound `CCCCCCc1ccc(O)cc1O` displayed a boiling point of 334 °C and a melting point of 68 °C.
In turn, `CNC1(c2ccccc2Cl)CCCCC1=O` (stereo unspecified) yielded a melting point of 92.5 °C.
The compound `COc1ccc(S)cc1` yielded a boiling point of 228 °C.
Consider `O=C(O)C(=O)Nc1ccccc1`, for which the melting point came out at 150 °C.
The same measure, in the same setting: then `O=C(O)COc1ccc(Cl)c(Cl)c1`, with 139 °C.
For `CCCCCCCCOc1ccc(C(=O)c2ccccc2)c(O)c1`, the melting point was determined as 48.5 °C and the ready biodegradability entry is listed as “not readily biodegradable”.
`CCC(N)C(O)c1ccccc1` (stereo unspecified) registered a melting point of 79.5 °C.
Consider `FC(F)(Br)C(F)(F)Br`, for which the boiling point came to 47.3 °C, the log10 vapour pressure (mmHg) worked out at 2.51, the melting point is -110 °C and the ready biodegradability result is recorded as “not readily biodegradable”.
In the case of `COc1ccc(C=O)cc1`, the boiling point was found to be 248 °C, the log10 vapour pressure (mmHg) was -1.48, the melting point was 0 °C and the ready biodegradability entry was “readily biodegradable”.
As for `CCc1cc2cc(OC)c(OC)cc2c(Cc2ccccc2)n1`, the melting point came out at 78.5 °C.
On the same count and under the same terms, then `CCCC(=O)C=Cc1ccc(O)c(O)c1`, with 132 °C.
`CCc1ccc([N+](=O)[O-])cc1` gave a boiling point of 246 °C and a melting point of -12.3 °C.
Consider `Cc1c(F)c(F)c(C(=O)O)c(F)c1F`, for which the melting point came to 174 °C.
For `FC(F)(F)C(F)(F)C(F)(F)C(F)(F)C(F)(F)C(F)(F)C(F)(F)Br`, the boiling point worked out at 118 °C.
Compound `c1ccc2cc3c4ccccc4c4ccccc4c3cc2c1` registered a boiling point of 524 °C, a log10 vapour pressure (mmHg) of -10 and a melting point of 206 °C.
As for `CCCCCCCC(N)=O`, the boiling point amounted to 239 °C and the melting point was 108 °C.
For the compound `N#Cc1cccc(C#N)c1`, the melting point worked out at 162 °C and the ready biodegradability result is “not readily biodegradable”.
With `CCOCCCO`, the melting point was 160 °C.
Compound `CCOP(=O)(SC(C)CC)N1CCSC1=O` (stereo unspecified) had a log10 Henry constant (atm·m³/mol) of -9.76 and a log10 vapour pressure (mmHg) of -5.38.
As for `CCC(C)C(C)(CC)CC` (stereo unspecified), the boiling point stood at 162 °C.
Regarding `CN1CCC(OC(c2ccccc2)c2ccccc2)CC1.Cl`, the melting point was 204 °C.
Compound `CCOc1ccccc1N` had a boiling point of 232 °C.
For `O=C(O)c1c(Cl)cccc1Cl`, the melting point was 144 °C and the ready biodegradability entry was “not readily biodegradable”.
As for `COC(=O)c1cccc(C(=O)OC)c1`, the boiling point is 282 °C, the melting point turned out to be 67.5 °C and the ready biodegradability entry is on record as “readily biodegradable”.
`N#Cc1cc(F)c(F)c(F)c1F` returned a boiling point of 164 °C.
As to `CSc1ccccc1N`, the boiling point turned out to be 234 °C.
Consider `COC(=O)[C@H](Cc1ccccc1)NC(=O)[C@@H](N)CC(=O)O`, for which the melting point amounted to 246 °C.
Take `C=CCCCC(=O)O`: the boiling point is 203 °C and the melting point was -37 °C.
Take `CCC1CCc2ccccc2C1` (stereo unspecified): the boiling point is 235 °C and the melting point was -42.8 °C.
For `CCC(Br)=CBr`, in that order: 150 °C and -49.5 °C.

The values above are taken from the OPERA property sets (Mansouri et al. 2018).
